Experimental data as given in patent US9133255B2, “Products and methods using soy peptides to lower total and LDL cholesterol levels” (SOY LABS, LLC, priority 2006, dated 2015).

Experiments:
deacetylated histone H4 = deacetylated histone H4 (Homo sapiens, UniProt P62805); conditions: cited from earlier work
C3H/T101/2 cells = conditions: cited from earlier work
E1A-transfected cells = conditions: cited from earlier work
LDL-receptor = LDL-receptor expression in HepG2 cells, Western blot; assay type: cell-based; conditions: 10 uM synthetic lunasin 24 h, cholesterol-free media 24 h, densitometry, FIG. 3
Procedure: (§1) In cell culture of HepG2 liver cells, it is possible to activate SREBP and increase the expression of HMG-CoA reductase and LDL-receptor by removing cholesterol in the growth media. This can be achieved by exposing the cells to serum-free media for 24 hours (31, 32).
(§2) In the second experiment, HepG2 cells (1×10^6) were treated with or without 10 uM synthetic lunasin in DMEM with 10% FBS for 24 hours before growth media is replaced with cholesterol-free media to activate SREBP. After 24 hours, total protein was extracted and 10 ug proteins loaded onto 10% Tris-glycine gels, electroblotted onto nitrocellulose membrane, and immunostained with primary antibodies raised against LDL-receptor and actin (to show equal loading of proteins). Spot densitometer values were obtained by digital scanning and Un-Scan It software, and represent mean and standard deviation of data from three separate experiments.

[1] = target: T1, histone H3 acetylation by PCAF (Gallus gallus, UniProt P84229); assay: H3 histone acetyltransferase (HAT) assay with PCAF, chicken erythrocyte core histones; assay type: biochemical; conditions: vs untreated control, FIG. 7
T1 construct: Core histones purified from chicken erythrocyte cells were used as templates in histone acetylase (HAT) reactions; purchased Upstate/Millipore; host or cells: chicken erythrocytes (histones)
From the text: The invention further provides an in vitro assay that can be used to screen potential sources of lunasin or analogues, fragments or variants of lunasin for biologically active material useful in the methods of the present invention. In one embodiment of the present invention, core histones purified from acid-extracted proteins of HeLa cells and chicken erythrocyte cells as well as recombinant histone H3 (commercially available from Upstate/Millipore) are used as templates in histone acetylase (HAT) reactions using PCAF histone acetylase enzyme in the presence or absence of lunasin. […] Chemiluminescent signals from antibody complexes can be visualized using standard chemiluminescent reagents and exposed to Kodak BioMAX film, developed and spot densitometer measured by using digital scanner and UN-SCAN-IT software program from Silk Scientific (Orem, Utah).
Biological activity of LeSC (A), LeSC+SF (B), digested LeSC+SF (C), digested LeSC (D), digested soy protein isolate (E) and digested soy concentrate (F) was measured using the H3 histone acetyltransferase (HAT) assay (see Example 8.) Around 100 mg total protein of LeSC, LeSC+SF, soy protein isolate and soy concentrate were digested by mixing pancreatin (Sigma Life Sciences, Saint Louis, Mo.) at 1:1 (w/w) and incubating for 30 min. at 40° C. […]

[2] = cited from earlier work
[3] = tested on: histone H3 and H4 acetylation; conditions: cited from earlier work
HMG-CoA reductase = HMG-CoA reductase expression in HepG2 cells, Western blot; assay type: cell-based; conditions: 10 uM synthetic lunasin 24 h, cholesterol-free media 24 h, densitometry, FIG. 2
Procedure: as §1
as §2, with “the first” for “the second”, “media was” for “media is”, “ug protein was” for “ug proteins”, “against HMG-CoA reductase” for “against LDL-receptor”, “values are” for “values were”

skin tumor = conditions: mice, applied topically, ethanol as delivery system; cited from earlier work
[4] = target: T2, histone H3 acetylation by PCAF (Homo sapiens, UniProt P68431); assay: HAT assay with PCAF, HeLa core histones; assay type: biochemical; conditions: FIG. 8
T2 construct: The core histones isolated from untreated HeLa cells were used as a negative control; purchased Upstate/Millipore; host or cells: HeLa cells (histones)
Procedure: A confirmatory experiment to determine the biological activity of digested and undigested LeSC and LeSC+SF was conducted using a different core histone template. This time we used the core histones extracted from HeLa tumor cells. Unlike the chicken erythrocyte cells, core histones from sodium butyrate treated HeLa cells are commercially available (Upstate/Millipore, Piscataway, N.J.), and can be used as a positive control for histone acetylation. The core histones isolated from untreated HeLa cells were used as a negative control (low levels of histone acetylation) and as template for the HAT assay.
The HAT bioactivity assay was conducted using acid extracted core histones from HeLa cells (Upstate/Millipore) as a template (temp (−) control) for the PCAF catalyzed HAT reaction. […] The numbers below the legend indicate relative densitometer readings normalized using immunosignal from the template (temp). […]
LeSC+SF was partially digested by mixing it with freshly prepared pancreatin solution (10 ug/mL of distilled water) in a 1:0.5, (w/w) ratio. […] However, the conditions for the partial digestion of LeSC+SF has to be determined empirically by analyzing digestion products for lunasin content (FIG. 6) and biological activity using the HAT assay (FIG. 8.)

[5] = tested on: non-tumorigenic (RWPE-1) prostate cells; conditions: 2 uM lunasin, cited from earlier work
[6] = tested on: tumorigenic (RWPE-2) prostate cells; conditions: 2 uM lunasin, cited from earlier work
p21/WAF1/Cipi = conditions: NIH 3T3 cells pre-treated 24 hours, eight days after E1A transfection; cited from earlier work
Sp1 = Sp1 level in HepG2 cells, Western blot; assay type: cell-based; conditions: 10 uM synthetic lunasin
Procedure: Unlike HMG-CoA reductase, SREBP activation of LDL-receptor by sterol depletion requires increased recruitment of Sp1 co-activator to a site adjacent to SREBP in the promoter/regulatory sequence of LDL-receptor gene (25). […] To test this hypothesis, the level of Sp1 was determined in lunasin-treated growth media and cholesterol-free media by Western analysis using Sp1 antibody, as follows: HepG2 cells (1×10^6) were grown from confluence in DMEM with 10% FBS for 24 hours before growth media was replaced with fresh growth media or cholesterol-free media (to activate SREBP) and treated with, or without 10 uM synthetic lunasin. After 24 hours, total protein was extracted from each treatment and 10 ug protein loaded onto 10% Tris-glycine gels, electroblotted onto nitrocellulose membrane, and immunostained with primary antibodies raised against Sp1 and actin (to show equal loading of proteins). Spot densitometer values were obtained by digital scanning and Un-Scan It software and represent data from one experiment.

H3 acetylation by PCAF (biological activity), undigested sample [1]: significant reduction in H3 acetylation | H3 acetylation by PCAF (biological activity), undigested sample [4]: Significant reduction in H3 acetylation
Substance: lunasin: natural, synthetically or recombinantly obtained soybean lunasin polypeptide (SEQ ID 2), small subunit of a cotyledon-specific 2S albumin
binding to histones (deacetylated histone H4): binds preferentially to deacetylated histone H4 | reduction of foci formation (C3H/T101/2 cells; cells pre-treated with lunasin, exposed to DMBA and MCA): 70% | concentration sufficient to suppress foci formation (C3H/T101/2 cells; single 24 hour exposure, assays lasted six weeks): 125 nM | apoptosis (E1A-transfected cells): induces apoptosis | increase of LDL-receptor expression (LDL-receptor): more than 60% | water solubility [2]: water soluble | histone H3 and H4 acetylation [3]: inhibits histone H3 and H4 acetylation | reduction of HMG-CoA reductase expression (HMG-CoA reductase): more than 50% | skin tumor formation (skin tumor): reduce skin tumor formation | number of genes with greater than twofold change in expression ([5]; 24 hours, of 14500 genes, RWPE-1 and RWPE-2 together): 123 genes | number of genes up-regulated ([5]; RWPE-1 cells, 24 hours): 121 genes | genes down-regulated ([5]; non-tumorigenic epithelial cells): No genes were down-regulated | number of genes up-regulated ([6]; RWPE-2 cells, 24 hours): two | genes down-regulated ([6]; tumorigenic epithelial cells): No genes were down-regulated | increase in p21/WAF1/Cipi protein levels (p21/WAF1/Cipi): five-fold | further increase of Sp1 levels (Sp1; cholesterol-free media, FIG. 4, one experiment): ~60% | Sp1 levels, lunasin-treated vs control (Sp1; growth media, FIG. 4): not significantly different
